Values of other authors, collected in US20190282540A1, “TARGETED DRUG DELIVERY” (NOXOPHARM LIMITED, priority 2016, published 2019).

Assays:
[1] = [14C] idronoxil given orally, target dose 20 mg/kg
[2] = test system: wide range of cancer cell types; settings: fold relative to genistein
[3] = in vivo, following dietary challenge

For `Oc1ccc(C2=Cc3ccc(O)cc3OC2)cc1` [Idronoxil, 2H-1-Benzopyran-7-0,1,3-(4-hydroxyphenyl)], the “levels of isotope in the brain and spinal cord” value [1] is listed as “below the limit of reliable measurement”, the “potency as an anti-cancer agent compared to genistein” value [2] is listed as “about 10 ×” and the conjugation (intravenously administered, second-pass liver metabolism) is listed as “completely conjugated”. For the same molecule, the “conversion into water-soluble conjugates” value (orally administered, gut mucosa transferase activity and first-pass liver metabolism) was “completely converted into water-soluble conjugates”.

In the case of `O=c1c(-c2ccc(O)cc2)coc2cc(O)cc(O)c12` [genistein], the brain-to-blood ratio [3] is given as 0.04.
